For 18 compounds, IC50 results are on record in patent US12281122B1, “PI3K inhibitors” (Cogent Biosciences, Inc., priority 2023, dated 2025).

In one test the target is PI3Kα (Homo sapiens, UniProt P42336). Kind of test: PI3Kα enzyme assay (Transcreener ADP2 TR-FRET Red Assay). The test is classed as biochemical. The conditions noted are these: purified recombinant full-length protein; 2 hours pre-incubation with compound; read-out: PI3Kα WT IC50. The essentials: (§1)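 IC50 taken at 50 POC from a four-parameter logistic fit of TR-FRET (665/615 nm) ADP signal. Reactions used full-length recombinant enzyme, compound pre-incubation for 2 h, then 60 min with ATP and PI(4,5)P2 diC8 substrate at room temperature, pH 7.5 HEPES buffer with 25 mM MgCl2; compounds tested from 50,000 to 0.85 nM.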
(In TR-FRET formats the signal depends on donor and acceptor labels being close together.)

For test [1], the system named is T47D (PI3Kα-H1047R) cell line. Nature of the test: HTRF phospho-AKT(S473) cell assay in T47D cells. The format is cell-based, human. To be noted: Homo sapiens; T47D (PI3Kα-H1047R) cells, HTRF phospho-AKT(S473), 2 hours compound incubation. The essentials: (§2)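 Cells plated overnight (T47D in RPMI/10% FBS/0.2 units/mL insulin; SKBR3 in McCoy's 5A/10% FBS), then given 12-point 1:3 compound series (top 5 μM T47D, 10 μM SKBR3; ≤0.5% DMSO) for 2 h at 37° C. SKBR3 stimulated with 70 ng/ml PDGF-BB for final 15 min. Lysate pAKT(S473) by HTRF; IC50 calculated.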

In a further test the target is PI3Kα H1047R (Homo sapiens, UniProt P42336, H1047R). Kind of test: PI3Kα H1047R enzyme assay (Transcreener ADP2 TR-FRET Red Assay). The test is classed as biochemical. To be noted: purified recombinant full-length protein; 2 hours pre-incubation with compound. The essentials: as §1
In test [2] the test system is SKBR3 (PI3Kα-Wild Type) cell line. Kind of test: HTRF phospho-AKT(S473) cell assay in SKBR3 cells. The test is classed as cell-based, human. The conditions noted are these: Homo sapiens, SK-BR-3; SKBR3 (PI3Kα-Wild Type) cells, HTRF phospho-AKT(S473), 2 hours compound incubation, PDGF-BB stimulated. In short, it runs like this: as §2

Sequence of PI3Kα H1047R (P42336 whole entry H1047R): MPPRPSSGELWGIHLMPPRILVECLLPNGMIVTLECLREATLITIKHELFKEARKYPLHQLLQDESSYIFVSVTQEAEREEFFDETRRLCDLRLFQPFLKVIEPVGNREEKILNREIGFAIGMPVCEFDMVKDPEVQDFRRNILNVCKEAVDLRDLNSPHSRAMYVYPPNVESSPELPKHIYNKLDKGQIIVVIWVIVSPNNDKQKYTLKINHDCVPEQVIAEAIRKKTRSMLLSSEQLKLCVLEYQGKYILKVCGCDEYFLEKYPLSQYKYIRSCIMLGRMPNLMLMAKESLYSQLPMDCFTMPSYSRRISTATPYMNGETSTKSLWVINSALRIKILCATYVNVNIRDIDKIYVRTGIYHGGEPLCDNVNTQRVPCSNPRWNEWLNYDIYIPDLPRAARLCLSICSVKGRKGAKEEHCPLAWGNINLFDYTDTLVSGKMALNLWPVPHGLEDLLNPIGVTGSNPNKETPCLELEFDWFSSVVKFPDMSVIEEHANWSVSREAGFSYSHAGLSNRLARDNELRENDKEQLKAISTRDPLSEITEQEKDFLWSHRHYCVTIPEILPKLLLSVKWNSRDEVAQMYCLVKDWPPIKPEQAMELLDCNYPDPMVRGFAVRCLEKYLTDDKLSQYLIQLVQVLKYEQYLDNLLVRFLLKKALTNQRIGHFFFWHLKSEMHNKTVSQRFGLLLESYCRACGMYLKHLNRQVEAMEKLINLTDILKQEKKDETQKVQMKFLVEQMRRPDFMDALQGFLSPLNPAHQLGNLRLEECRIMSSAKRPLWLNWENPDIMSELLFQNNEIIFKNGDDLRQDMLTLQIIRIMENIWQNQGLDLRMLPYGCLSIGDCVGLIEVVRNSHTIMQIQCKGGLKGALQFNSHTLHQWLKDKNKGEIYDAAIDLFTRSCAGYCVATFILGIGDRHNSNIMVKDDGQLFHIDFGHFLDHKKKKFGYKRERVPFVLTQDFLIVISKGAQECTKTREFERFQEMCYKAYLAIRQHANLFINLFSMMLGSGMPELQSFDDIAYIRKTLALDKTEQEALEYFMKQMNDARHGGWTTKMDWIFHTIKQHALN
Sequence of PI3Kα H1047R (P27986 2-724 partner): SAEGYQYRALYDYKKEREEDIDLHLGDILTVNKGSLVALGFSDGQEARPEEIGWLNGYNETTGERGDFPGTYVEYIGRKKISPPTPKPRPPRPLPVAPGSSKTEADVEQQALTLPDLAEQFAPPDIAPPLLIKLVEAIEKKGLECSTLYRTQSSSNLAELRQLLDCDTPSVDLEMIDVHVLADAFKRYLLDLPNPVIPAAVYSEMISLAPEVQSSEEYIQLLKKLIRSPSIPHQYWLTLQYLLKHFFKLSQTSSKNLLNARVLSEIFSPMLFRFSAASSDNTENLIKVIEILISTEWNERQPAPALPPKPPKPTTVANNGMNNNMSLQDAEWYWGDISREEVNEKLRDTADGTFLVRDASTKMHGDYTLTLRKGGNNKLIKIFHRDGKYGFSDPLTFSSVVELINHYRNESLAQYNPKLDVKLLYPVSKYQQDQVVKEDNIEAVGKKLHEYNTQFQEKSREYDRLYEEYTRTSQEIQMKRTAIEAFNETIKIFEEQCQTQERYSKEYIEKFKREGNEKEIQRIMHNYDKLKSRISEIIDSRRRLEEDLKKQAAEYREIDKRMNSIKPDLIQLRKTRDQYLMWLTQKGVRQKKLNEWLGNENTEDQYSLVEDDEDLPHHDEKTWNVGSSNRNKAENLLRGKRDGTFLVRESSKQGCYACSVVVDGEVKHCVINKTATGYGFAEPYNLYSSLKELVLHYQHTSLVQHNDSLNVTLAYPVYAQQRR
Sequence of PI3Kα (P42336 whole entry): as the sequence (P42336 whole entry H1047R) above, with R1047H counted along it
Sequence of PI3Kα (P27986 2-724 partner): as the sequence (P27986 2-724 partner) above

Usually IC50 stands for the midpoint of a concentration-inhibition curve. Take `Cc1cc([C@@H](C)Nc2ccc(Cl)nc2C(=O)NS(C)(=O)=O)c2nc(N3CCC4(CCOCC4)C3)n(C)c(=O)c2c1` [Compound 33, (R)-6-chloro-3-((1-(3,6-dimethyl-4-oxo-2-(8-oxa-2-azaspiro[4.5]decan-2-yl)-3,4-dihydroquinazolin-8-yl)ethyl)amino)-N-(methylsulfonyl) picolinamide]: the IC50 at PI3Kα is at least 1000 nM; in test [1], 250 to 500 nM; on PI3Kα H1047R, 250 to 500 nM; in test [2], 1000 to 5000 nM.

On to `Cc1cc([C@@H](C)Nc2ccc(Cl)nc2C(=O)NS(C)(=O)=O)c2nc(N(C)CC3CC3)n(C)c(=O)c2c1` [Compound 14, (R)-6-chloro-3-((1-(2-((cyclopropylmethyl) (methyl)amino)-3,6-dimethyl-4-oxo-3,4-dihydroquinazolin-8-yl)ethyl)amino)-N-(methylsulfonyl) picolinamide], for which the IC50 on PI3Kα was at least 1000 nM; in test [1], 250 to 500 nM; at PI3Kα H1047R, 250 to 500 nM; in test [2], 1000 to 5000 nM.

Turning to `C[C@@H](Nc1ccc(Cl)nc1C(=O)NS(C)(=O)=O)c1cc(F)cc2c(=O)n(C)c(-c3cccc(F)c3F)nc12` [Compound 87, (R)-6-chloro-3-((1-(2-(2,3-difluorophenyl)-6-fluoro-3-methyl-4-oxo-3,4-dihydroquinazolin-8-yl)ethyl)amino)-N-(methylsulfonyl) picolinamide], the IC50 at PI3Kα is at least 1000 nM; in test [1], 1000 to 5000 nM; at PI3Kα H1047R, at least 1000 nM; in test [2] it was at least 5000 nM.

Take `Cc1cc([C@@H](C)Nc2ccc(Cl)nc2C(=O)NS(C)(=O)=O)c2nc(N3CC4(COC4)C3)n(C)c(=O)c2c1` [Compound 46, (R)-6-chloro-3-((1-(3,6-dimethyl-4-oxo-2-(2-oxa-6-azaspiro[3.3]heptan-6-yl)-3,4-dihydroquinazolin-8-yl)ethyl)amino)-N-(methylsulfonyl) picolinamide]: the IC50 on PI3Kα is at least 1000 nM; in test [1] it was 500 to 1000 nM; on PI3Kα H1047R it was at least 1000 nM; in test [2], 1000 to 5000 nM.

Turning to `Cc1cc([C@H](C)Nc2cn(C)nc2C(=O)NS(C)(=O)=O)c2nc(N3Cc4ccc(F)cc4C3)n(C)c(=O)c2c1` (single isomer, unassigned) [Compound 107, 4-((1-(2-(5-fluoroisoindolin-2-yl)-3,6-dimethyl-4-oxo-3,4-dihydroquinazolin-8-yl)ethyl)amino)-1-methyl-N-(methylsulfonyl)-1H-pyrazole-3-carboxamide], the IC50 on PI3Kα was at least 1000 nM; in test [1], 1000 to 5000 nM; at PI3Kα H1047R, at least 1000 nM; in test [2], at least 5000 nM.

On to `Cc1cc([C@@H](C)Nc2ccc(Cl)nc2C(=O)NS(C)(=O)=O)c2nc(N(C)C)n(C)c(=O)c2c1` [Compound 40, (R)-6-chloro-3-((1-(2-(dimethylamino)-3,6-dimethyl-4-oxo-3,4-dihydroquinazolin-8-yl)ethyl)amino)-N-(methylsulfonyl) picolinamide], for which the IC50 on PI3Kα is at least 1000 nM; in test [1], 250 to 500 nM; on PI3Kα H1047R it was at least 1000 nM; in test [2], 1000 to 5000 nM.

As for `C[C@@H](Nc1ccc(Cl)nc1C(=O)NS(C)(=O)=O)c1cccc2c(=O)n(C)c(N3Cc4ccc(F)cc4C3)nc12` [Compound 23, (R)-6-chloro-3-((1-(2-(5-fluoroisoindolin-2-yl)-3-methyl-4-oxo-3,4-dihydroquinazolin-8-yl)ethyl)amino)-N-(methylsulfonyl) picolinamide], the concentration for half-maximal inhibition (IC50) is at least 1000 nM at PI3Kα, 500 to 1000 nM in test [1], below 100 nM at PI3Kα H1047R and 1000 to 5000 nM in test [2].

Regarding `Cc1cc([C@@H](C)Nc2ccc(Cl)nc2C(=O)NS(C)(=O)=O)c2nc(OC3CCC3)n(C)c(=O)c2c1` [Compound 52, (R)-6-chloro-3-((1-(2-cyclobutoxy-3,6-dimethyl-4-oxo-3,4-dihydroquinazolin-8-yl)ethyl)amino)-N-(methylsulfonyl) picolinamide], the IC50 at PI3Kα was at least 1000 nM; in test [1] it was 500 to 1000 nM; at PI3Kα H1047R it was 100 to 250 nM; in test [2], 1000 to 5000 nM.

For `Cc1cc([C@@H](C)Nc2ccc(Cl)nc2C(=O)NS(C)(=O)=O)c2nc(-c3ccc(F)cn3)n(C)c(=O)c2c1` [Compound 88, (R)-6-chloro-3-((1-(2-(5-fluoropyridin-2-yl)-3,6-dimethyl-4-oxo-3,4-dihydroquinazolin-8-yl)ethyl)amino)-N-(methylsulfonyl) picolinamide], the IC50 on PI3Kα is at least 1000 nM; in test [1] it was 250 to 500 nM; on PI3Kα H1047R, at least 1000 nM; in test [2] it was 1000 to 5000 nM.

On to `C[C@@H](Nc1ccc(Cl)nc1C(=O)NS(C)(=O)=O)c1cccc2c(=O)n(C)c(N3Cc4cnn(C)c4C3)nc12` [Compound 38, (R)-6-chloro-3-((1-(3-methyl-2-(1-methyl-4,6-dihydropyrrolo[3,4-c]pyrazol-5(1H)-yl)-4-oxo-3,4-dihydroquinazolin-8-yl)ethyl)amino)-N-(methylsulfonyl) picolinamide], for which the IC50 was at least 1000 nM on PI3Kα, 250 to 500 nM in test [1], 500 to 1000 nM at PI3Kα H1047R and 1000 to 5000 nM in test [2].

On to `Cc1cc([C@@H](C)Nc2ccc(Cl)nc2C(=O)NS(C)(=O)=O)c2nc(NC3CCC3)n(C)c(=O)c2c1` [Compound 10, (R)-6-chloro-3-((1-(2-(cyclobutylamino)-3,6-dimethyl-4-oxo-3,4-dihydroquinazolin-8-yl)ethyl)amino)-N-(methylsulfonyl) picolinamide], for which the IC50 is at least 1000 nM on PI3Kα, 1000 to 5000 nM in test [1], 250 to 500 nM at PI3Kα H1047R and at least 5000 nM in test [2].

For `CCn1ncc2c1CN(c1nc3c([C@@H](C)Nc4ccc(Cl)nc4C(=O)NS(C)(=O)=O)cc(C)cc3c(=O)n1C)C2` [Compound 45, (R)-6-chloro-3-((1-(2-(1-ethyl-4,6-dihydropyrrolo[3,4-c]pyrazol-5(1H)-yl)-3,6-dimethyl-4-oxo-3,4-dihydroquinazolin-8-yl)ethyl)amino)-N-(methylsulfonyl) picolinamide], the IC50 at PI3Kα was 500 to 1000 nM; in test [1], below 250 nM; at PI3Kα H1047R, 100 to 250 nM; in test [2] it was 1000 to 5000 nM.

Consider `Cc1ccc(N[C@H](C)c2cc(F)cc3c(=O)n(C)c(N4Cc5ccc(F)cc5C4)nc23)c(C(=O)NS(C)(=O)=O)n1` [Compound 61, (R)-3-((1-(6-fluoro-2-(5-fluoroisoindolin-2-yl)-3-methyl-4-oxo-3,4-dihydro-quinazolin-8-yl)ethyl)amino)-6-methyl-N-(methylsulfonyl) picolinamide], for which the IC50 is at least 1000 nM at PI3Kα, 1000 to 5000 nM in test [1], at least 1000 nM on PI3Kα H1047R and at least 5000 nM in test [2].

For `Cc1ccc(N[C@H](C)c2cccc3c(=O)n(C)c(N4Cc5ccc(F)cc5C4)nc23)c(C(=O)NS(C)(=O)=O)n1` [Compound 2, (R)-3-((1-(2-(5-fluoroisoindolin-2-yl)-3-methyl-4-oxo-3,4-dihydroquinazolin-8-yl)ethyl)amino)-6-methyl-N-(methylsulfonyl) picolinamide], the IC50 was at least 1000 nM on PI3Kα, 1000 to 5000 nM in test [1], at least 1000 nM on PI3Kα H1047R and at least 5000 nM in test [2].

On to `C[C@@H](Nc1ccc(Cl)nc1C(=O)NS(C)(=O)=O)c1cc(F)cc2c(=O)n(C)c(-c3cncc(F)c3)nc12` [Compound 90, (R)-6-chloro-3-((1-(6-fluoro-2-(5-fluoropyridin-3-yl)-3-methyl-4-oxo-3,4-dihydroquinazolin-8-yl)ethyl)amino)-N-(methylsulfonyl) picolinamide], for which the IC50 on PI3Kα is at least 1000 nM; in test [1], 1000 to 5000 nM; at PI3Kα H1047R it was at least 1000 nM; in test [2], 1000 to 5000 nM.

In the case of `Cc1cc([C@@H](C)Nc2ccc(C)[nH]c2=O)c2nc(N3Cc4ccc(F)cc4C3)n(C)c(=O)c2c1` [Compound 97, (R)-2-(5-fluoroisoindolin-2-yl)-3,6-dimethyl-8-(1-((6-methyl-2-oxo-1,2-dihydropyridin-3-yl)amino)ethyl)quinazolin-4(3H)-one], the IC50 was at least 1000 nM at PI3Kα, 500 to 1000 nM in test [1], at least 1000 nM on PI3Kα H1047R and at least 5000 nM in test [2].

Regarding `Cc1cc([C@@H](C)Nc2ccc(Cl)nc2C(=O)NS(C)(=O)=O)c2nc(N3CCC3)n(C)c(=O)c2c1` [Compound 15], the IC50 on PI3Kα is at least 1000 nM; in test [1] it was 250 to 500 nM; on PI3Kα H1047R, 250 to 500 nM; in test [2], 1000 to 5000 nM.

For `C[C@@H](Nc1ccc(Cl)nc1C(=O)NS(C)(=O)=O)c1cc(F)cc2c(=O)n(C)c(N3Cc4cccnc4C3)nc12` [Compound 32, (R)-6-chloro-3-((1-(2-(5,7-dihydro-6H-pyrrolo[3,4-b]pyridin-6-yl)-6-fluoro-3-methyl-4-oxo-3,4-dihydroquinazolin-8-yl)ethyl)amino)-N-(methylsulfonyl) picolinamide], the IC50 on PI3Kα fell in the range of 500 to 1000 nM; in test [1], 250 to 500 nM; at PI3Kα H1047R, 250 to 500 nM; in test [2], 1000 to 5000 nM.
